Experiments:
[1] = target: human dopamine D2L receptor (Homo sapiens, UniProt P14416); experiment: Dopamine D2L [35S]GTPγS functional assay (SPA, CHO membranes); format: biochemical; conditions: read-out: D2L GTPgS % Inhibition
Method: To determine for agonist or antagonist activity of compounds of the invention in functional assays, human recombinant dopamine D2L receptor stably expressed in Chinese hamster ovary (CHO) cells (Senogles S E et al. J Biol Chem. 265(8): 4507, 1990) was used. Compounds of invention were pre-incubated with the membranes (0.1 mg/mL) and 10 mM GDP in modified HEPES buffer (20 mM HEPES, pH 7.4, 100 mM NaCl, 10 mM MgCl2, 1 mM DTT, 1 mM EDTA) for 20 min. and Scintillation Proximity Assay (SPA) beads were added for another 60 min. at 30° C. The reaction was initiated by 0.3 nM [^35S]GTPγS for an additional 15 min. incubation period. […] Compounds were screened at […] or lower, using 0.4% DMSO as vehicle. Assay results are presented as the percent response of specific binding in Table 12.

Sprague-Dawley rats = experiment: Two-trial novel object recognition in scopolamine treated rats; format: in vivo, rat; conditions: 0.3 mg/kg
Method: Ennaceur, A., and Delacour, J. (1988), Behav. Brain Res. 31:47-59. […] See, e.g., Scali, C., et al., (1994), Neurosci. Letts. […] 53:277-283.
Male Sprague-Dawley rats between six and seven weeks old, weighing between 220-300 grams are obtained from Centre d'Elevage (Rue Janvier, B. P. 55, Le Genest-Saint-Isle 53940, France). The animals are housed in groups of 2 to 4 in polypropylene cages (with a floor area of 1032 cm^2) under standard conditions: at RT (22±2° C.), under a 12 h light/12 h dark cycle, with food and water provided ad libitum.
The experimental arena is a square wooden box (60 cm×60 cm×40 cm) painted dark blue, with 15 cm×15 cm black squares under a clear plexiglass floor. The arena and objects placed inside the arena are cleaned with water between each trial to eliminate any odor trails left by rats. […]
Novel object recognition test is comprised of two trials separated by an interval of 120 min. or 24 hours. […] The time required for each animal to complete 15 seconds of object exploration is determined, with a cut-off time of four min. […] Rats are placed back in the arena for three min., and exploration of both objects is determined. Locomotor activity of rats (number of times rats cross grid lines visible under the clear plexiglass floor) is scored for during T1 and T2. […]
Recognition scores and % of good learners for compounds of the invention are determined.

[2] = target: T1, human recombinant serotonin 5-HT1B receptor (Homo sapiens, UniProt P28222); experiment: 5-HT1B radioligand binding competition assay ([3H]5-CT, CHO-K1 membranes); conditions: 5 μM, in duplicate, average
T1 construct: expressed in transfected cells; host or cells: CHO-K1 cell line, membrane extracts
T1 sequence (P28222 whole entry): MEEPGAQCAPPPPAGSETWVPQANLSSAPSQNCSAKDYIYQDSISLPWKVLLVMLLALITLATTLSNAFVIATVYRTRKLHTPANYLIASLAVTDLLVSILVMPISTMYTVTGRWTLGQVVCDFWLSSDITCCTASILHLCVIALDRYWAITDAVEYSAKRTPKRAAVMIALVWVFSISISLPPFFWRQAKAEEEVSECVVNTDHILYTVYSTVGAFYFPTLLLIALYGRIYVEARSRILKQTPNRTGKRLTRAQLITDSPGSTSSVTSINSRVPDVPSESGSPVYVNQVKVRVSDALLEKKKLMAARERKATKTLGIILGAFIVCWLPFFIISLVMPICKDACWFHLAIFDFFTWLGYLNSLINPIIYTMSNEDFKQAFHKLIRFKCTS
Method: To determine the binding activity at the human recombinant serotonin 5-HT1B receptor of compounds of the invention, CHO-K1 cell line expressing the human 5-HT1B recombinant receptor was amplified to prepare membranes used for the radioligand binding assay throughout the study. Radioligand binding competition on 5-HT1B was performed by adding successively in the wells of a 96 well plate (Master Block, Greiner, 786201). […] The plate was incubated 60 min at 25° C. in a water bath and then filtered over GF/B filters (Perkin Elmer, 6005177, presoaked in 0.5% PE1 for 2 h at room temperature) with a Filtration unit (Perkin Elmer). The filters were washed 3× with 0.5 mL of ice-cold washing buffer (50 mM Tris pH 7.4). 50 μL Microscint 20 (Packard) was added and the plate was incubated 15 min on an orbital shaker and then counted with a TopCount™ for 1 min/well.
The reference value thus obtained for the test was compared to a historical value obtained from the same receptor and used to validate the experimental session. […] For replicate determinations, the maximum variability tolerated in the test was of +/−20% around the average of the replicates.
Compounds were tested for binding activity in the radioligand binding competition assay on human 5-HT1B receptor, at one concentration […], in duplicate. Dose-response data from test compounds were analyzed with XLfit (IDBS) software using nonlinear regression applied to a sigmoidal dose-response model.
Dose-response data was analyzed with XLfit (IDBS) software using non-linear regression applied to a sigmoidal dose-response model.

human dopamine D2L receptor, sequence (P14416 whole entry): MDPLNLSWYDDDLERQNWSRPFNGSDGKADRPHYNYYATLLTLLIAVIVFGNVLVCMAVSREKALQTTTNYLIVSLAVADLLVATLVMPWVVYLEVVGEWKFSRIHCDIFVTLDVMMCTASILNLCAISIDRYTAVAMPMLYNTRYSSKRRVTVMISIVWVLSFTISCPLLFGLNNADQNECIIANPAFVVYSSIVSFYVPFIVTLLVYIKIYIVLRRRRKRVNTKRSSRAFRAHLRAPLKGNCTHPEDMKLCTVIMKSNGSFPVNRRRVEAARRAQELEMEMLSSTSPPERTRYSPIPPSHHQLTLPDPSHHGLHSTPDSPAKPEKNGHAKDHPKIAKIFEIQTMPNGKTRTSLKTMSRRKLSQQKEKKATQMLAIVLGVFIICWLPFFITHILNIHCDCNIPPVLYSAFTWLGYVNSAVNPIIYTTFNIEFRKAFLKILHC

**Q.** What does the source list for `C/C(=C\n1c2c(c3cc(Cl)ccc31)CN(C)CC2)c1ccc(F)cc1` [Compound 83, (E)-8-chloro-5-(2-(4-fluorophenyl)prop-1-enyl)-2,3,4,5-tetrahydro-2-methyl-1H-pyrido[4,3-b]indole]?
**A.** inhibition at 0.001 µM ([1]; conc. 1 nM): 16%; inhibition at 0.003 µM ([1]; conc. 3 nM): 28%; inhibition at 0.01 µM ([1]; conc. 10 nM): 49%; inhibition at 0.03 µM ([1]; conc. 30 nM): 55%; inhibition at 0.1 µM ([1]; conc. 100 nM): 77%

**Q.** `C/C(=C\n1c2c(c3cc(Cl)ccc31)CN(C)CC2)c1ccncc1` [Compound 90, (E)-8-chloro-2,3,4,5-tetrahydro-2-methyl-5-(2-(pyridin-4-yl)prop-1-enyl)-1H-pyrido[4,3-b]indole] was tested. Which “activity in object recognition in the presence of scopolamine” value (Sprague-Dawley rats) did it give?
**A.** Its value is “activity”.

**Q.** `COc1ccc(C(C)(O)Cn2c3c(c4cc(C)ccc42)CN(C)CC3)cc1` (stereo not shown) [Compound 174, 1-(2,8-dimethyl-3,4-dihydro-1H-pyrido[4,3-b]indol-5(2H)-yl)-2-(4-methoxyphenyl)propan-2-ol] was tested. Which “5-HT1B (5 μM) % Binding relative to bound radioligand” value [2] did it give?
**A.** Its value is 16%.

— patent publication US8906925B2, “Pyrido[4,3-B]indoles containing rigid moieties” (Medivation Technologies, Inc., priority 2008, dated 2014)
